Reference: patent publication US9132191B2, “Compositions and methods of preventing or ameliorating abnormal thrombus formation and cardiovascular disease” (Yale University, priority 2011, dated 2015)

How the values were obtained:
[1] = target: T1, platelet COX-1 (Homo sapiens, UniProt P23219); assay: Residual serum TXB2 generation in clotted whole blood (index of platelet COX-1 activity); format: cell-based
T1 construct: in whole blood allowed to clot for 1 h at 37° C; (serum TXB2) which is an index of maximal capacity of platelets; endogenous in cells; host or cells: platelets in whole blood of diabetic patients and healthy subjects
Description: Patients with the presence of type 2 diabetes (n=102) were recruited from the Hospital Policlinico G.B. Rossi (Verona, Italy) and San Pio da Pietrelcina Hospital (Vasto, Italy). Exclusion criteria included concurrent cancer, inflammatory disorder, immunological disorder, surgery or major trauma in the previous month or use of nonsteroidal anti-inflammatory drugs (NSAIDs) or corticosteroids in the previous month. Both the diabetic population and the severe cardiovascular disease population were chronically treated with low dose aspirin for at least one month (enteric coated aspirin 100 mg for at least 7 consecutive days). After recruitment the patients received a standard oral dose of 100 mg for seven days at 8.00 pm. […] The 10 healthy subjects recruited were from the staff of Hospital Policlinico G.B. Rossi (Verona Italy) with normal ECG and echocardiograms and no evidence of atherosclerosis by carotid artery sonography. The healthy subjects were all treated with aspirin 100 mg daily for 1 week.
(serum TXB2) which is an index of maximal capacity of platelets to generate TXB2.
In order to verify whether in these patients higher generation of platelet TXB2 was due to the phenomenon of aspirin resistance which implies that the aspirin target, i.e., COX-1, is less sensitive to inactivation by aspirin, residual generation of TXB2 was assessed after adding aspirin (50 μg/mL) in vitro.

[2] = tested on: washed platelet; assay: Aggregometry of washed platelets incubated with AR inhibitors (Example 12); format: cell-based; settings: Homo sapiens, 10 μM inhibitor, 1 hour at 37° C., collagen 1 μg/mL, light transmission 5 min, read-out: % reduction (platelet aggregation, light transmission)
Experimental: Platelet-poor plasma (PPP) was obtained by centrifugation of the rest of the blood at 1400 g at 25° C. for 10 min. The PRP was adjusted with PPP to 2−3×10^8 platelets/mL suspensions. For the washed platelets, PRP was obtained by centrifugation at 250 g for 15 min, and platelets were sedimented at 1,000 g for 15 min, and then resuspended in washing buffer (103 mmol/L NaCl, 5 mmol/L KCl, 1 mmol/L MgCl2, 5 mmol/L glucose, 36 mmol/L citric acid) at pH 6.5 containing 3.5 mg/mL bovine serum albumin (Sigma). After sedimentation, the platelets were washed twice in this buffer and resuspended at 2−3×10^8 platelets/mL in the buffer composed of 5 mmol/L HEPES, 137 mmol/L NaCl, 2 mmol/L KCl, 1 mmol/L MgCl2, 12 mmol/L NaHCO3, 0.3 mmol/L NaH2PO4, 5.5 mmol/L glucose, pH 7.4, containing 3.5 mg/mL BSA (Saxena et al., 1989, Science 243:1596-1599).
Washed platelet (1×10^8) were incubated with AR inhibitors for 1 hour at 37° C. For aggregometry studies, 0.5 μL of collagen solution (with a final concentration of 1 μg/mL) was added into 500 μL of washed platelet, and then the light transmission was measured for 5 min. […] The percentage of platelet aggregation, as measured in terms of light transmission, is summarized in FIG. 17, and representative tracings are depicted in FIG. 18.

[3] = tested on: human platelets; assay: Collagen-induced platelet aggregation (light transmission, Lumi-aggregometer); format: cell-based; settings: NG or HG 90 min; 1 μg/mL collagen; SB239063 50 μmol/L, U73122 5 μmol/L, quercetin 10 μmol/L, SQ29548 10 μmol/L, NAC, apocynin 100 μmol/L
Experimental: Venous blood was drawn from volunteers at Yale University Medical School, free from medication known to interfere with platelet function. […] PRP was obtained by centrifugation of blood at 250 g at 37° C. for 15 min and the platelet count in the PRP was estimated by an automated cell counter.
Platelet-poor plasma (PPP) was obtained by centrifugation of the rest of the blood at 1400 g at 25° C. for 10 min. The PRP was adjusted with PPP to 2−3×10^8 platelets/mL suspensions.
Platelet aggregation was monitored at 37° C. with constant stirring (1,200 rpm) in a dual-channel Lumi-aggregometer (Chrono-Log model 700). Platelet aggregation was measured as the increase in light transmission for 10 min, starting with the addition of 0.5 μL of 1 mg/mL collagen (Chrono-Log) as a proaggregatory stimulus. For measuring ADP-stimulated platelet aggregation, 1 μM ADP (Chrono-Log) was used. The maximum aggregation was expressed as percentage of maximum light transmission, with non-stimulated platelet-rich plasma being 0% and platelet-poor plasma 100%.

[4] = tested on: human platelets; assay: Thromboxane biosynthesis (TXB2 EIA in platelet supernatant); format: cell-based; settings: NG or HG; 1 μg/mL collagen; U73122 5 μmol/L, SB239063 50 μmol/L, SQ29548 10 μmol/L
Experimental: Platelets were sedimented by centrifugation at 2,500 g for 5 min, and the supernatant was harvested for the measurement of TX levels. Since TXA2 is rapidly hydrolyzed into TXB2, the level of TXB2 was measured using TXB2 EIA kit according to the manufacturer's ELISA instructions (Cayman Chemical).

[5] = tested on: thromboxane receptor (TP); assay: Surface expression of thromboxane receptor in collagen-stimulated platelets; format: cell-based, human; settings: HG; 1 μg/mL collagen; epalrestat 10 μmol/L, NAC, apocynin
Experimental: (§1) Primary antibodies against the following proteins were diluted and used according to the manufacturer's instructions: AR (sc-17732, Santa Cruz Biotechnology), PKC α (sc-208, Santa Cruz Biotechnology) and its phosphorylated form (sc-136018, Thr638, Santa Cruz Biotechnology), PKC βII (NB110-57358, Novus Biologicals) and its phosphorylated form (NSB964, Thr641, Novus Biologicals), PKC δ (2058, Cell Signaling) and its phosphorylated form (9376, Ser643, Cell Signaling), PLC-γ1 (H00005335-A01, Novus Biologicals) and its phosphorylated form (07866, Tyr783, Millipore), PLC-γ2 (NB110-66669, Novus Biologicals) and its phosphorylated form (NB110-57424, Tyr1217, Novus Biologicals), p38α MAPK (9212, Cell Signaling) and its phosphorylated form (AF869, T180/Y182, R&D Systems), and TX receptor (NBP1-40198, Novus Biologicals). Secondary antibodies against rabbit and mouse IgG (Thermo Scientific) were diluted 1:5000 before use. The membrane was re-probed with antibodies against Na^+/K^+-ATPase (NB300-147, Novus Biologicals), a plasma membrane marker, and GAPDH (sc-20357, Santa Cruz Biotechnology), a cytoplasmic marker, for normalization.
Platelets were sedimented by centrifugation at 2,500 g for 5 min. The membrane and cytosolic fractions of total extracts were separated using the subcellular protein fractionation kit (Thermo Scientific). […]

[6] = tested on: human platelets; assay: Oxidative stress and superoxide level in collagen-stimulated platelets; format: cell-based; settings: NG and HG, epalrestat 10 μmol/L, 10 mmol/L NAC, 100 μmol/L apocynin
Experimental: The oxidative stress and superoxide level was measured by a commercial kit according to the manufacturer's instruction (Total ROS/Superoxide Detection Kit, Enzo Life Sciences). Platelets were sedimented by centrifugation at 400 g for 5 min, and then washed. The washed platelets were incubated with 1 μmol/L ROS/Superoxide detection mix for 60 min at 37° C. in the presence or absence of 1 μg/mL collagen.

[7] = tested on: p38α MAPK; assay: p38α MAPK phosphorylation in collagen-stimulated platelets (phospho-kinase array, Western blot); format: cell-based, human; settings: NG and HG; 1 μg/mL collagen 10 min; epalrestat 10 μmol/L, U73122, NAC 1 mmol/L, quercetin 10 μmol/L
Experimental: Platelets were homogenized in the lysis buffer (25 mmol/L Tris HCl, pH 7.6, 150 mmol/L NaCl, 1% NP-40, 1% sodium deoxycholate, 0.1% SDS) with the addition of 0.1% protease inhibitor and 0.1% phosphatase inhibitor (Thermo Scientific). The supernatant was collected after centrifugation at 13,000 rpm for 15 min at 4° C. The samples are loaded in 4×SDS-Laemmli sample buffers and boiled for 10 min. Equal amounts of total extracts were subjected to SDS-PAGE. The proteins were transferred to nitrocellulose membrane and probed with the indicated antibodies, and the antigen-antibody complex was detected by enhanced chemiluminescence reagents (Thermo Scientific).
as §1
The human phospho-kinase array was performed according to the manufacturer's instruction (R&D Systems). […] The signals for the amount of phosphorylated proteins bound were measured by the chemiluminescent detection method.

[8] = target: aldose reductase (Homo sapiens, UniProt P15121); settings: aldose reductase inhibitor IC50; no method given; cited from earlier work

T1 sequence (P23219 24-599): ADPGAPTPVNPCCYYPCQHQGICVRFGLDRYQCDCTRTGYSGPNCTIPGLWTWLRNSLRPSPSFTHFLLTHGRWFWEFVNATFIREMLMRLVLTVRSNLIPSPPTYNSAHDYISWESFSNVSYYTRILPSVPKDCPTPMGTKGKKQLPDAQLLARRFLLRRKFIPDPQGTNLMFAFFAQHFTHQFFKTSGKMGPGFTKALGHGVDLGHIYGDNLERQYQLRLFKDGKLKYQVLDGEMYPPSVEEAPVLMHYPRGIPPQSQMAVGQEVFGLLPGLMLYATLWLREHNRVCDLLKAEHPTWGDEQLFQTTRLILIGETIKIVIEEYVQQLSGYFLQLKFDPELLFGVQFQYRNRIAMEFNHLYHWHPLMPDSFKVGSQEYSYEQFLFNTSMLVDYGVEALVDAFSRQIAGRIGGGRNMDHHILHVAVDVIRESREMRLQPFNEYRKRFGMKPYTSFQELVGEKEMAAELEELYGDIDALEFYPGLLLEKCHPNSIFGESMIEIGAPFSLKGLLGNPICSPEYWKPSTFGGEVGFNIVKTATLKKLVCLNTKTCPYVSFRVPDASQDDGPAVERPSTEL

## CC(=O)Oc1ccccc1C(=O)O [aspirin, Acetylsalicylic Acid]
[1]; aspirin 50 μg/mL added in vitro
  diabetic patients with residual TXB2 levels higher than 4 ng/mL with aspirin in vitro: 2%
[1]; aspirin 50 μg/mL in vitro, diabetic patients and healthy subjects on aspirin 100 mg/day, blood clotted 1 h at 37° C.
  residual TXB2 generation after adding aspirin in vitro: further significant reduction
[1]; ex vivo, 12 h after the last dose of aspirin 100 mg/day
  diabetic patients with residual serum TXB2 higher than 4 ng/mL: 12%

## O=C(O)Cn1cc(Cc2nc3c(F)c(F)cc(F)c3s2)c2ccccc21 [IDD 676, [3-(4,5,7-Trifluorobenzothiazol-2-ylmethyl)indol-1-yl]acetic acid]
[2]
  inhibition at 10 µM: 54%

## O=C(O)Cn1c(=O)n(Cc2ccc(Br)cc2F)c(=O)c2ccc(Cl)cc21 [IDD 148, 3-(2-Fluoro-4-bromobenzyl)-7-chloro-2,4(1H,3H)-dioxoquinazoline-1-acetic acid]
[2]
  inhibition at 10 µM: 61%

## O=C1NC(=O)[C@@]2(CCOc3ccc(F)cc32)N1 [IDD 60, (4S)-6-Fluoro-2,3-dihydro-2′H,5′H-spiro[chromene-4,4′-imidazolidine]-2′,5′-dione]
[2]
  inhibition at 10 µM: 67%

## O=C(O)CCC/C=C\C[C@@H]1[C@H](CNNC(=O)Nc2ccccc2)[C@H]2CC[C@@H]1O2 [SQ29548, 1S-[1-alpha,2-beta-(5Z),3-beta,4-alpha]-7-[3-[[2-[(phenylamino)carbonyl]hydrazino]methyl]-7-oxabicyclo[2.2.1]hept-2-yl]-5-heptenoic acid]
[3]
  collagen-induced platelet aggregation (signalling inhibitors): attenuated the collagen-induced platelet aggregation
[4]
  collagen-induced TXB2 (TXA2) release (signalling inhibitors): attenuated collagen-induced TXA2 release

## O=C(O)Cc1nn(Cc2nc3cc(C(F)(F)F)ccc3s2)c(=O)c2ccccc12 [IDD 65, 3,4-Dihydro-4-oxo-3-[[5-(trifluoromethyl)-2-benzothiazolyl]methyl]-1-phthalazineacetic acid]
[2]
  inhibition at 10 µM: 50%

## CC(=O)N[C@@H](CS)C(=O)O [NAC, N-acetyl-cysteine]
[5]
  surface expression of TX receptor (TP): significantly attenuated
[3]
  collagen-induced platelet aggregation (signalling inhibitors): attenuated the collagen-induced platelet aggregation to a similar extent as ARI
[6]
  level of oxidative stress and superoxide: significantly reduced
[7]
  collagen-induced phosphorylation of p38α MAPK (Western blot): significantly reduced

## COc1ccc2c(C(=S)N(C)CC(=O)O)cccc2c1C(F)(F)F [IDD 63, N-{[6-methoxy-5-(trifluoromethyl)-1-naphthyl]carbothioyl}-N-methylglycine]
[2]
  inhibition at 10 µM: 78%

## O=C(O)CN1C(=O)C(=O)N(Cc2cccc([N+](=O)[O-])c2)C1=O [IDD 314, 3-(3-nitrobenzyl)-2,4,5-trioxoimidazolidine-1-acetic acid]
[8]
  IC50: 718 nM
[2]
  inhibition at 10 µM: 52%

## COc1cc(C(C)=O)ccc1O [apocynin]
[5]
  surface expression of TX receptor (TP): significantly attenuated
[3]
  collagen-induced platelet aggregation (signalling inhibitors): attenuated the collagen-induced platelet aggregation to a similar extent as ARI
[6]
  level of oxidative stress and superoxide: significantly reduced

## O=C1CC2(C(=O)N1)C(=O)N(Cc1ccc(Br)cc1F)C(=O)c1ccc(F)cc12 (racemic) [IDD 62, (±)-2-(4-Bromo-2-fluorobenzyl)-6-fluorospiro[1,2,3,4-tetrahydroisoquinoline-4,3′-pyrrolidine]-1,2′,3,5′-tetraone]
[2]
  inhibition at 10 µM: 59%

## O=c1c(O)c(-c2ccc(O)c(O)c2)oc2cc(O)cc(O)c12 [quercetin]
[3]
  collagen-induced platelet aggregation (signalling inhibitors): reduced platelet aggregation
[7]
  collagen-induced phosphorylation of p38α MAPK (Western blot): attenuated

## COc1ccc2c(c1)CC[C@@H]1[C@@H]2CC[C@]2(C)[C@@H](NCCCCCCN3C(=O)C=CC3=O)CC[C@@H]12 [U73122]
[3]
  collagen-induced platelet aggregation (signalling inhibitors): reduced platelet aggregation
[4]
  collagen-induced TXB2 (TXA2) release (signalling inhibitors): attenuated the collagen-induced TXB2 release
[7]
  collagen-induced phosphorylation of p38α MAPK (Western blot): significantly reduced

## COc1nccc(-c2c(-c3ccc(F)cc3)ncn2[C@H]2CC[C@H](O)CC2)n1 [SB239063, trans-4-[4-(4-fluorophenyl)-5-(2-methoxy-4-pyrimidinyl)-1H-imidazol-1-yl]cyclohexanol]
[3]
  collagen-induced platelet aggregation (signalling inhibitors): reduced platelet aggregation
[4]
  collagen-induced TXB2 (TXA2) release (signalling inhibitors): attenuated the collagen-induced TXB2 release

## CCCCCOc1ccc(C2SC(=O)NC2=O)cc1OCC (centres unmarked) [IDD 73, 5-[3-Ethoxy-4-(pentyloxy)phenyl]-2,4-thiazolidinedione]
[8]
  IC50: 294 nM
[2]
  inhibition at 10 µM: 54%
